In ChEMBL document CHEMBL3885881, “DrugMatrix”:

Species: Rattus norvegicus
Assay: DrugMatrix - Regimen: Daily Repeat
Type: toxicity, organism-based, Sprague-Dawley
Set-up: regimen Daily Repeat, gender Male, age 6-8 weeks
Details: in vivo, po, route oral GAVAGE, vehicle 100 % WATER; for BASOPHIL / EOSINOPHIL / ERYTHROCYTE COUNT / HEMATOCRIT / HEMOGLOBIN / LEUKOCYTE COUNT / LYMPHOCYTE / MEAN CORPUSCULAR HEMOGLOBIN / MEAN CORPUSCULAR HEMOGLOBIN CONCENTRATION / MEAN CORPUSCULAR VOLUME / MONOCYTE / NEUTROPHIL / PLATELET COUNT: tissue Blood; for ALANINE AMINOTRANSFERASE / ALBUMIN / ALKALINE PHOSPHATASE / ASPARTATE AMINOTRANSFERASE / BLOOD UREA NITROGEN / CHLORIDE / CHOLESTEROL / CREATINE PHOSPHOKINASE / CREATININE / GLUCOSE / PHOSPHORUS / POTASSIUM / SODIUM / TOTAL BILIRUBIN / TOTAL PROTEIN: tissue Plasma
[1] = 0 mg/kg, 72 h, dose level Control, time 3 day
[2] = 0 mg/kg, 120 h, dose level Control, time 5 day
[3] = 45 mg/kg, 72 h, dose level Low, time 3 day
[4] = 45 mg/kg, 120 h, dose level Low, time 5 day

For `Nc1ccc(S(=O)(=O)Nc2ncccn2)cc1` [SULFADIAZINE], which BASOPHIL [1] is on record?
The BASOPHIL was 0%.

What about the EOSINOPHIL [1] of the same compound?
Its EOSINOPHIL is 0.5%.

What about the “ERYTHROCYTE COUNT” value [1] of the same compound?
Its value is 5.8 x10E6/uL.

And the HEMATOCRIT [1]?
The HEMATOCRIT was 35.07%.

And the HEMOGLOBIN [1]?
Its HEMOGLOBIN is 14.12 G/DL.

And the “LEUKOCYTE COUNT” value [1]?
The value was 13.7 x10E3/uL.

What about the LYMPHOCYTE [1] of the same compound?
Its LYMPHOCYTE is 82.33%.

And the “MEAN CORPUSCULAR HEMOGLOBIN” value [1]?
The value was 24.38 pg.

And the “MEAN CORPUSCULAR HEMOGLOBIN CONCENTRATION” value [1]?
The value was 40.28 G/DL.

And the “MEAN CORPUSCULAR VOLUME” value [1]?
Its value is 60.52 fL.

What about the MONOCYTE [1] of the same compound?
Its MONOCYTE is 2.67%.

And the NEUTROPHIL [1]?
Its NEUTROPHIL is 14.5%.

What about the “PLATELET COUNT” value [1] of the same compound?
Its value is 911.5 x10E3/uL.

And the “ALANINE AMINOTRANSFERASE” value [1]?
Its value is 36.83 u/L.

And the ALBUMIN [1]?
The ALBUMIN was 3.75 G/DL.

And the “ALKALINE PHOSPHATASE” value [1]?
The value was 399.83 u/L.

And the “ASPARTATE AMINOTRANSFERASE” value [1]?
Its value is 66 u/L.

And the “BLOOD UREA NITROGEN” value [1]?
Its value is 14.67 mg/dL.

What about the CHLORIDE [1] of the same compound?
Its CHLORIDE is 101.67 MEQ/L.

And the CHOLESTEROL [1]?
Its CHOLESTEROL is 66.33 mg/dL.

What about the “CREATINE PHOSPHOKINASE” value [1] of the same compound?
Its value is 139.5 u/L.

And the CREATININE [1]?
The CREATININE was 0.92 mg/dL.

What about the GLUCOSE [1] of the same compound?
Its GLUCOSE is 175 mg/dL.

What about the PHOSPHORUS [1] of the same compound?
The PHOSPHORUS was 11.42 mg/dL.

And the POTASSIUM [1]?
Its POTASSIUM is 7.03 MEQ/L.

And the SODIUM [1]?
The SODIUM was 148.5 MEQ/L.

What about the “TOTAL BILIRUBIN” value [1] of the same compound?
The value was 1.13 mg/dL.

And the “TOTAL PROTEIN” value [1]?
Its value is 6.87 G/DL.

And the BASOPHIL [2]?
The BASOPHIL was 0%.

What about the EOSINOPHIL [2] of the same compound?
Its EOSINOPHIL is 0.2%.

What about the “ERYTHROCYTE COUNT” value [2] of the same compound?
Its value is 6.02 x10E6/uL.

What about the HEMATOCRIT [2] of the same compound?
Its HEMATOCRIT is 36.48%.

And the HEMOGLOBIN [2]?
Its HEMOGLOBIN is 14.38 G/DL.

And the “LEUKOCYTE COUNT” value [2]?
The value was 12.34 x10E3/uL.

And the LYMPHOCYTE [2]?
Its LYMPHOCYTE is 83%.

What about the “MEAN CORPUSCULAR HEMOGLOBIN” value [2] of the same compound?
The value was 23.92 pg.

And the “MEAN CORPUSCULAR HEMOGLOBIN CONCENTRATION” value [2]?
The value was 39.44 G/DL.

What about the “MEAN CORPUSCULAR VOLUME” value [2] of the same compound?
The value was 60.66 fL.

And the MONOCYTE [2]?
Its MONOCYTE is 3%.

And the NEUTROPHIL [2]?
The NEUTROPHIL was 13.8%.

And the “PLATELET COUNT” value [2]?
Its value is 1190.6 x10E3/uL.

And the “ALANINE AMINOTRANSFERASE” value [2]?
Its value is 43 u/L.

What about the ALBUMIN [2] of the same compound?
The ALBUMIN was 3.73 G/DL.

And the “ALKALINE PHOSPHATASE” value [2]?
The value was 393 u/L.

And the “ASPARTATE AMINOTRANSFERASE” value [2]?
The value was 62.33 u/L.

What about the “BLOOD UREA NITROGEN” value [2] of the same compound?
Its value is 16.33 mg/dL.

And the CHLORIDE [2]?
The CHLORIDE was 101.67 MEQ/L.

And the CHOLESTEROL [2]?
Its CHOLESTEROL is 65.5 mg/dL.

And the “CREATINE PHOSPHOKINASE” value [2]?
The value was 130.67 u/L.

What about the CREATININE [2] of the same compound?
Its CREATININE is 0.58 mg/dL.

What about the GLUCOSE [2] of the same compound?
The GLUCOSE was 180.67 mg/dL.

And the PHOSPHORUS [2]?
The PHOSPHORUS was 11.28 mg/dL.

What about the POTASSIUM [2] of the same compound?
Its POTASSIUM is 7.05 MEQ/L.

And the SODIUM [2]?
The SODIUM was 148.17 MEQ/L.

What about the “TOTAL BILIRUBIN” value [2] of the same compound?
Its value is 0.72 mg/dL.

And the “TOTAL PROTEIN” value [2]?
The value was 6.83 G/DL.

And the BASOPHIL [3]?
Its BASOPHIL is 0%.

What about the EOSINOPHIL [3] of the same compound?
The EOSINOPHIL was 0%.

What about the “ERYTHROCYTE COUNT” value [3] of the same compound?
Its value is 6.15 x10E6/uL.

And the HEMATOCRIT [3]?
The HEMATOCRIT was 35.77%.

What about the HEMOGLOBIN [3] of the same compound?
The HEMOGLOBIN was 14.2 G/DL.

And the “LEUKOCYTE COUNT” value [3]?
The value was 14.83 x10E3/uL.

What about the LYMPHOCYTE [3] of the same compound?
The LYMPHOCYTE was 84%.

What about the “MEAN CORPUSCULAR HEMOGLOBIN” value [3] of the same compound?
The value was 23.1 pg.

What about the “MEAN CORPUSCULAR HEMOGLOBIN CONCENTRATION” value [3] of the same compound?
Its value is 39.67 G/DL.

And the “MEAN CORPUSCULAR VOLUME” value [3]?
Its value is 58.17 fL.

And the MONOCYTE [3]?
The MONOCYTE was 2%.

What about the NEUTROPHIL [3] of the same compound?
Its NEUTROPHIL is 14%.

What about the “PLATELET COUNT” value [3] of the same compound?
The value was 1166 x10E3/uL.

What about the “ALANINE AMINOTRANSFERASE” value [3] of the same compound?
The value was 33 u/L.

What about the ALBUMIN [3] of the same compound?
The ALBUMIN was 3.57 G/DL.

What about the “ALKALINE PHOSPHATASE” value [3] of the same compound?
The value was 285 u/L.

And the “ASPARTATE AMINOTRANSFERASE” value [3]?
The value was 56 u/L.

What about the “BLOOD UREA NITROGEN” value [3] of the same compound?
Its value is 11.67 mg/dL.

And the CHLORIDE [3]?
The CHLORIDE was 102 MEQ/L.

And the CHOLESTEROL [3]?
Its CHOLESTEROL is 73.33 mg/dL.

And the “CREATINE PHOSPHOKINASE” value [3]?
Its value is 134 u/L.

What about the CREATININE [3] of the same compound?
Its CREATININE is 0.6 mg/dL.

And the GLUCOSE [3]?
Its GLUCOSE is 186 mg/dL.

And the PHOSPHORUS [3]?
Its PHOSPHORUS is 11.9 mg/dL.

And the POTASSIUM [3]?
Its POTASSIUM is 7 MEQ/L.

What about the SODIUM [3] of the same compound?
Its SODIUM is 149.67 MEQ/L.

What about the “TOTAL BILIRUBIN” value [3] of the same compound?
The value was 0.3 mg/dL.

What about the “TOTAL PROTEIN” value [3] of the same compound?
The value was 6.33 G/DL.

And the BASOPHIL [4]?
The BASOPHIL was 0%.

What about the EOSINOPHIL [4] of the same compound?
Its EOSINOPHIL is 0.33%.

And the “ERYTHROCYTE COUNT” value [4]?
The value was 6.55 x10E6/uL.

What about the HEMATOCRIT [4] of the same compound?
Its HEMATOCRIT is 40.3%.

And the HEMOGLOBIN [4]?
Its HEMOGLOBIN is 15.6 G/DL.

And the “LEUKOCYTE COUNT” value [4]?
The value was 12.63 x10E3/uL.

What about the LYMPHOCYTE [4] of the same compound?
The LYMPHOCYTE was 84%.

And the “MEAN CORPUSCULAR HEMOGLOBIN” value [4]?
The value was 23.9 pg.

What about the “MEAN CORPUSCULAR HEMOGLOBIN CONCENTRATION” value [4] of the same compound?
Its value is 38.8 G/DL.

What about the “MEAN CORPUSCULAR VOLUME” value [4] of the same compound?
Its value is 61.57 fL.

And the MONOCYTE [4]?
Its MONOCYTE is 1%.

What about the NEUTROPHIL [4] of the same compound?
Its NEUTROPHIL is 14.67%.

What about the “PLATELET COUNT” value [4] of the same compound?
The value was 1086.33 x10E3/uL.

What about the “ALANINE AMINOTRANSFERASE” value [4] of the same compound?
The value was 37.67 u/L.

What about the ALBUMIN [4] of the same compound?
The ALBUMIN was 3.9 G/DL.

What about the “ALKALINE PHOSPHATASE” value [4] of the same compound?
The value was 378 u/L.

And the “ASPARTATE AMINOTRANSFERASE” value [4]?
Its value is 55.67 u/L.

What about the “BLOOD UREA NITROGEN” value [4] of the same compound?
Its value is 12.67 mg/dL.

What about the CHLORIDE [4] of the same compound?
Its CHLORIDE is 104 MEQ/L.

What about the CHOLESTEROL [4] of the same compound?
Its CHOLESTEROL is 66.33 mg/dL.

And the “CREATINE PHOSPHOKINASE” value [4]?
Its value is 110.67 u/L.

And the CREATININE [4]?
The CREATININE was 0.63 mg/dL.

And the GLUCOSE [4]?
The GLUCOSE was 181.67 mg/dL.

What about the PHOSPHORUS [4] of the same compound?
Its PHOSPHORUS is 12.57 mg/dL.

What about the POTASSIUM [4] of the same compound?
The POTASSIUM was 7.23 MEQ/L.

And the SODIUM [4]?
The SODIUM was 151.33 MEQ/L.

What about the “TOTAL BILIRUBIN” value [4] of the same compound?
The value was 0.4 mg/dL.

What about the “TOTAL PROTEIN” value [4] of the same compound?
Its value is 7.03 G/DL.
